Columns and labels:
B. longum = assay: Fecal fermentation, quantification of B. longum species by real-time PCR; format: cell-based, Bifidobacterium longum; settings: faecal slurry fermentation; 2′-FL at both daily (DD) and per intake (DI) doses; p<0.05 vs product (DD) and blend (DI)
Method: (§1) Example 2: A series of experiments were carried out to determine the effects of providing 2′-FL, lutein, and RRR-alpha-tocopherol on bacterial growth. Fecal fermentations were carried out by using 3 ml fermentations in 10 ml fermentor (24 multi-well plate; μ-24 Bioreactor, Applikon Biotechnology). Fresh faecal sample came from a formula (without prebiotic or probiotic)-fed baby. Stools were vacuum stored in refrigerated conditions until the fermentation. Fresh feces were weighed and dissolved in Mc Bain and MacFarlane medium (1:5) to hydrate them. Three milliliters of the homogenized mixture (faecal slurry) were inoculated in each fermenter. In each case, prebiotic (2′-FL), RRR-alpha-tocopherol (vitamin E) and lutein were added at different dosage (Table 4). […] Anaerobiosis, temperature (37° C.) and pH levels (pH 5.5) were maintained during the assay and monitored throughout the study. […] For quantification, previous extracted DNA was used. Real-time PCR was used to quantify genera Bifidobacterium and Lactobacillus, and B. longum and L. fermentum species. In the case of genus Bifidobacterium and B. longum, quantification was performed with primers described by Matsuki et al.1. Lactobacillus group was quantified with primers described by Byun et al.2. Lactobacillus fermentum was quantified with the aid of primers designed by Matsuda et al.3 Nucleotide sequences of primers are listed in Table 5. […]

L. fermentum = assay: Fecal fermentation, quantification of L. fermentum species by real-time PCR; format: cell-based, Lactobacillus fermentum; settings: faecal slurry fermentation; detection limit 1.00·103CFU/g slurry
Method: as §1

genus Bifidobacterium = assay: Fecal fermentation, quantification of genus Bifidobacterium by real-time PCR; format: cell-based; settings: faecal slurry of formula-fed baby, 37° C., pH 5.5, anaerobic; 2′-FL at both daily (DD) and per intake (DI) doses; p<0.05 vs blend (DD) and blend (DI)
Method: as §1

`C[C@@H]1O[C@@H](O[C@H]2[C@H](O[C@H]3[C@H](O)[C@@H](O)C(O)O[C@@H]3CO)O[C@H](CO)[C@H](O)[C@@H]2O)[C@@H](O)[C@H](O)[C@@H]1O` (stereo partly drawn) [2′-FL, 2′-fucosyllactose] was tested, and the “B. longum numbers (real-time PCR, FIG. 2)” value (B. longum) was “significant higher B. longum numbers”, the “L. fermentum detection (real-time PCR, FIG. 4)” value (L. fermentum) was “reached detectable values” and the “bifidobacteria numbers (real-time PCR, FIG. 1)” value (genus Bifidobacterium) was “significant higher bifidobacteria numbers”.

— patent US11998577B2, “Methods for increasing growth of beneficial bacteria in the gastrointestinal tract” (ABBOTT LABORATORIES, priority 2017, dated 2024)
